Patent US5143839A, “Assay of endopeptidases and novel purified bacterial enzyme” (Ramot Ltd., priority 1989, dated 1992)
Starred links: 1 amine or outer side, 2 acyl side, 3 side chain; linkers in the order of their positions; H or OH if unused. Residues, ends and D or L forms follow the SMILES beside them. *: point of attachment. pNA = O=[N+]([O-])c1ccc(N*)cc1; Suc = O=C(CCC(=O)[*:2])[*:1]

How the values were obtained:
Human neutrophils [1] = test: Hydrolysis of the substrate by human neutrophils; format: cell-based; settings: substrate 0.4 mM, pH 7.5; neutrophils from a healthy donor, 5×10^5 cells/ml
Experimental: (§1) Neutral endopeptidase and neutral proteinase activities were assayed by the two-stage assay using the synthetic substrate Suc-Ala-Ala-Leu-NH-Np supplemented with Streptomyces griseus aminopeptidase, usually 6-7 μg/ml. Assays were performed in 0.1M NaCl-0.05M Tris.HCl, pH 7.5 at 25° C., unless otherwise stated, with or without 0.01M CaCl2. Assay volume was 1 ml or 2.5 ml when using a Varian Techtron spectrophotometer or 0.2 ml at 23° C. when performed with microplates (Munc Immuno Plate II F) using a Kinetic Microplate Reader (Molecular Devices Corp.). Activity was measured by following the increase in absorbance at 405 nm, due to the release of 4-nitroaniline, E405 =10,600M^-1 cm^-1 [14 ]. Molar concentration of thermolysin was estimated using A280 1% =17.65 [15] and molecular mass of 34,600 Da; molar concentration of bovine kidney neutral endopeptidase by protein determination and molecular mass of 90 kDa, deduced from SDS PAGE. Both endopeptidase 24.11 from bovine kidney and thermolysin cleave the Ala-Leu bond of the compound at a very fast rate (Table 3). The Leu residue of the substrate interacts with the major hydrophobic specificity sites of the enzymes (S'1), whereas the two Ala residues interact with additional subsites (S1, S2), thereby contributing to catalysis and/or binding. Even the 4-nitroaniline leaving group probably interacts with the enzyme at subsite S'2. […]

[2] = molecular target: T1, Endopeptidase 24.11 from bovine kidney (Bos taurus, UniProt E1BPL8); test: Two-stage assay with Suc-Ala-Ala-Leu-NH-Np plus S. griseus aminopeptidase: inhibition by phosphoramidon; format: biochemical
T1 construct: Endopeptidase 24.11 from bovine kidney was purified by Triton X-100 extraction; from tissue; host or cells: bovine kidney
T1 sequence (E1BPL8 1-750): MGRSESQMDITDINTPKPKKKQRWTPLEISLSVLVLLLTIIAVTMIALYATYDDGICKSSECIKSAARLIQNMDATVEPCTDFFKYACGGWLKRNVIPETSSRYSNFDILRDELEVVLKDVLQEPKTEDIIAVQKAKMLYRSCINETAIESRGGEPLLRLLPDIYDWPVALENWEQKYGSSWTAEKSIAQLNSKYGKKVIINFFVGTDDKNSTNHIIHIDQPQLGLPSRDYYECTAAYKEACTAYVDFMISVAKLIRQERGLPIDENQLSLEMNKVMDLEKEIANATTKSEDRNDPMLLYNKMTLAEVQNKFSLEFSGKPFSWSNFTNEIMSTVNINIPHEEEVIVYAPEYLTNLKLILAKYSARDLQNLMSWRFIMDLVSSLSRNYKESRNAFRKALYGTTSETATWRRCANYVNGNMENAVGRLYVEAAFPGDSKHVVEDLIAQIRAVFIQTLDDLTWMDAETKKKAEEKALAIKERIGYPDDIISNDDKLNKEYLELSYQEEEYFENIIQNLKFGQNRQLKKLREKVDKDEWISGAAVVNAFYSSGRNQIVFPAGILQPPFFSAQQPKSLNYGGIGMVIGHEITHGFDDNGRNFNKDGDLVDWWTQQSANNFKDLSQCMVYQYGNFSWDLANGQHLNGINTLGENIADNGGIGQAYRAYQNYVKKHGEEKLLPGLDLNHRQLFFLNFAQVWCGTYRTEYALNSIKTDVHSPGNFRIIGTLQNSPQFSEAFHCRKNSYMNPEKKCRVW
Experimental: (§2) Neutral endopeptidase and neutral proteinase activities were assayed by the two-stage assay using the synthetic substrate Suc-Ala-Ala-Leu-NH-Np supplemented with Streptomyces griseus aminopeptidase, usually 6-7 μg/ml. Assays were performed in 0.1M NaCl-0.05M Tris.HCl, pH 7.5 at 25° C., unless otherwise stated, with or without 0.01M CaCl2. Assay volume was 1 ml or 2.5 ml when using a Varian Techtron spectrophotometer or 0.2 ml at 23° C. when performed with microplates (Munc Immuno Plate II F) using a Kinetic Microplate Reader (Molecular Devices Corp.). Activity was measured by following the increase in absorbance at 405 nm, due to the release of 4-nitroaniline, E405 =10,600M^-1 cm^-1 [14 ]. Molar concentration of thermolysin was estimated using A280 1% =17.65 [15] and molecular mass of 34,600 Da; molar concentration of bovine kidney neutral endopeptidase by protein determination and molecular mass of 90 kDa, deduced from SDS PAGE. Both endopeptidase 24.11 from bovine kidney and thermolysin cleave the Ala-Leu bond of the compound at a very fast rate (Table 3). The Leu residue of the substrate interacts with the major hydrophobic specificity sites of the enzymes (S'1), whereas the two Ala residues interact with additional subsites (S1, S2), thereby contributing to catalysis and/or binding. Even the 4-nitroaniline leaving group probably interacts with the enzyme at subsite S'2. Previously reported assays of endopeptidase 24.11 usually utilized a hydrophobic Phe residue, but Leu seems preferable in reaching higher kcat values. The rapid hydrolysis of the Leu residue is also preferable for the present two-stage assay utilizing Steptomyces aminopeptidase, since this enzyme very rapidly hydrolyzes the product of the endopeptidase attack, Leu-NH-Np. The rapid hydrolysis coupled with Km values in the 1 mM range and overall kcat /Km values in the 10^6 M^-1 s^-1 range (Table 3), render the substrate most suitable for detailed kinetic investigations of the enzymes and for detection of the 24.11 and 24.4 classes of enzymes in mammalian tissues and in bacterial extracellular fluids, respectively.
(§3) Like other previously reported substrates for endopeptidase 24.11, the substrate employed may, in principle, be hydrolyzed by chymotrypsin-like enzymes. To assess the contribution of the neutral endopeptidases and neutral proteinases 1 the observed color development, the specific inhibitor of these classes of enzymes phosphoramidon was added (Table 4).
(§4) Inhibition was measured at pH 7.5, 25° C., in the presence of 10 mM CaCl2 except for the neutrophils that were assayed at 37° C. and in the absence of added Ca^2+. The substrate Suc-Ala-Ala-Leu-NH-Npat 0.4 mM was used. […]

Thermolysin = molecular target: T2, Thermolysin (Bacillus thermoproteolyticus, UniProt P00800); test: as above; format: biochemical
T2 sequence (P00800 233-548): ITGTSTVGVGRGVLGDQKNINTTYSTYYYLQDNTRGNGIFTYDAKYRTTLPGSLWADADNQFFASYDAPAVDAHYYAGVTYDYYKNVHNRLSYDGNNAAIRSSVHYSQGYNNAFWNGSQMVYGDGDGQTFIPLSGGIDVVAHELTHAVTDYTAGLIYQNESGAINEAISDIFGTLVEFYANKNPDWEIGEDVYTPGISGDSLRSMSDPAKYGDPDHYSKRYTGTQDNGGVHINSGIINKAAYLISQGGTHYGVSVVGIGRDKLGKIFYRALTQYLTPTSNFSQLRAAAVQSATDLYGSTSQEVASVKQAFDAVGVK
Experimental: as §2, §3, §4

Human neutrophils [3] = test: Two-stage assay on intact cells: inhibition by phosphoramidon; format: cell-based
Experimental: as §1, with “3).” for “3). The Leu residue of the substrate interacts with the major hydrophobic specificity sites of the enzymes (S'1), whereas the two Ala residues interact with additional subsites (S1, S2), thereby contributing to catalysis and/or binding. Even the 4-nitroaniline leaving group probably interacts with the enzyme at subsite S'2.”
(§5) Inhibition was measured at pH 7.5, 25° C., in the presence of 10 mM CaCl2 except for the neutrophils that were assayed at 37° C. and in the absence of added Ca^2+. […]

B. cereus culture = molecular target: T3, B. cereus culture (Bacillus cereus, UniProt P05806); test: Two-stage assay on bacterial culture filtrate: inhibition by phosphoramidon; format: biochemical
T3 construct: B. cereus culture filtrate, 5 μl/ml substrate; endogenous in cells; host or cells: Bacillus cereus X-3 DSM 3101 culture filtrate
Experimental: Bacillus cereus (X-3 DSM 3101, German Collection of Microorganisms, Braunschweig, FRG) containing the neural proteinase were obtained by overnight cultivation in a rich medium supplemented with calcium chloride.
as §1, with “PAGE.” for “PAGE. Both endopeptidase 24.11 from bovine kidney and thermolysin cleave the Ala-Leu bond of the compound at a very fast rate (Table 3). The Leu residue of the substrate interacts with the major hydrophobic specificity sites of the enzymes (S'1), whereas the two Ala residues interact with additional subsites (S1, S2), thereby contributing to catalysis and/or binding. Even the 4-nitroaniline leaving group probably interacts with the enzyme at subsite S'2.”
as §5

T3 sequence (P05806 250-566): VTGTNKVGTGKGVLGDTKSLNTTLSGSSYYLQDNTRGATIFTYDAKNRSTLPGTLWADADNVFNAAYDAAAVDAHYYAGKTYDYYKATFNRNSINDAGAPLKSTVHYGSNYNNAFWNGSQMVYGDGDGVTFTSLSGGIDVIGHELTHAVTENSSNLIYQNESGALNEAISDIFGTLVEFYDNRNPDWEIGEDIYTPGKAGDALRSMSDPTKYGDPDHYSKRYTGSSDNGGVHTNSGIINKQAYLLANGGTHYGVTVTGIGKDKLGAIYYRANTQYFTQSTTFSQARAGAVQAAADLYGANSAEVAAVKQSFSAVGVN

SMILES | rate of substrate hydrolysis (Human neutrophils [1]) | inhibition at 3.6 µM ([2]; phosphoramidon 3.6 μM, pH 7.5, 25° C., 10 mM CaCl2, substrate 0.4 mM, enzyme 2.2×10^-9 M) [%] | effect of inhibitor on activity ([2]; purified enzyme) | inhibition at 18 µM (Thermolysin; phosphoramidon 18.0 μM, pH 7.5, 25° C., 10 mM CaCl2, substrate 0.4 mM, enzyme 1.5×10^-9 M) [%] | effect of inhibitor on activity (Thermolysin; purified enzyme) | inhibition at 3.6 µM (Human neutrophils [3]; Homo sapiens, Neutrophil, phosphoramidon 3.6 μM, pH 7.5, 37° C., no added Ca2+, substrate 0.4 mM, 5×10^5 cells/ml) [%] | effect of inhibitor on enzymatic reaction (Human neutrophils [3]; intact neutrophils) | effect of inhibitor on enzymatic reaction (B. cereus culture; bacterial culture) | inhibition at 18 µM (B. cereus culture; phosphoramidon 18.0 μM, pH 7.5, 25° C., 10 mM CaCl2, substrate 0.4 mM, culture filtrate 5 μl/ml substrate) [%]
CC(C)C[C@H](NC(=O)[C@H](C)NC(=O)[C@H](C)NC(=O)CCC(=O)O)C(=O)Nc1ccc([N+](=O)[O-])cc1 [Suc-Ala-Ala-Leu-NH-Np] (Suc-Ala-Ala-Leu-pNA) | ~ 1.3 nmoles/min/10^6 cells |  |  |  |  |  |  |  | 
CC(C)C[C@H](NP(=O)(O)O[C@@H]1O[C@@H](C)[C@H](O)[C@@H](O)[C@H]1O)C(=O)N[C@@H](Cc1c[nH]c2ccccc12)C(=O)O [phosphoramidon] |  | > 99 | completely abolishes the activity | > 99 | completely abolishes the activity | > 95 | strongly inhibits | strongly inhibits | ~95
